Measurements as given in PubChem BioAssay AID330 (DTP/NCI, 2004).
Values joined by “and” are separate entries in the source; they are usually repeats but may differ in a detail not shown here. Identical values can stand only once. Toxic doses and inconclusive results are not listed. How the source made its calls: active means survival T/C of 150% or more; inactive means T/C below 125% in these data.

Tested on: P388 leukemia ip, CD2F1 mice, survival T/C
Assay: NCI In Vivo Anticancer Drug Screen. Data for tumor model P388 Leukemia (intraperitoneal) in CD2F1 (CDF1) mice
Conditions: endpoint: median survival time, higher = longer survival
In short: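 Mice carrying the transplanted tumor received test compound or vehicle. Survival was recorded in each group, and the value is the treated-group measurement divided by that of the vehicle-treated control group.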

Measured: T/C

CN1CCC2(CC1)OCCO2
inactive: dose: 25.0 mg/kg/injection, schedule: Q01DX005 (ip), vehicle: Klucel (hydroxypropylcellulose) (HPC) 100 % of control | dose: 50.0 mg/kg/injection, schedule: Q01DX005 (ip), vehicle: Klucel (hydroxypropylcellulose) (HPC) 100 % of control | dose: 100.0 mg/kg/injection, schedule: Q01DX005 (ip), vehicle: Klucel (hydroxypropylcellulose) (HPC) 89 % of control | dose: 200.0 mg/kg/injection, schedule: Q01DX005 (ip), vehicle: Klucel (hydroxypropylcellulose) (HPC) 89 % of control

O=C(CN1CCCCC1)c1c(-c2ccccc2)[nH]c2ccccc12
inactive: dose: 100.0 mg/kg/injection, schedule: Q04DX003 (ip), vehicle: saline 108 % of control | dose: 200.0 mg/kg/injection, schedule: Q04DX003 (ip), vehicle: saline 99 % of control | dose: 400.0 mg/kg/injection, schedule: Q04DX003 (ip), vehicle: saline 93 % of control

C1CCC(C2CCCC[N-]2)[N-]C1.O.O.[Pd+2] (stereo not given)
inactive: dose: 6.25 mg/kg/injection, schedule: Q04DX003 (ip), vehicle: Klucel (hydroxypropylcellulose) (HPC) 102 % of control | dose: 6.25 mg/kg/injection, schedule: Q04DX003 (ip), vehicle: saline with Tween-80 96 % of control | dose: 12.5 mg/kg/injection, schedule: Q04DX003 (ip), vehicle: Klucel (hydroxypropylcellulose) (HPC) 102 % of control | dose: 12.5 mg/kg/injection, schedule: Q04DX003 (ip), vehicle: saline with Tween-80 104 % of control | dose: 25.0 mg/kg/injection, schedule: Q04DX003 (ip), vehicle: Klucel (hydroxypropylcellulose) (HPC) 102 % of control | dose: 25.0 mg/kg/injection, schedule: Q04DX003 (ip), vehicle: saline with Tween-80 98 % of control and 105 % of control | dose: 50.0 mg/kg/injection, schedule: Q04DX003 (ip), vehicle: Klucel (hydroxypropylcellulose) (HPC) 101 % of control | dose: 50.0 mg/kg/injection, schedule: Q04DX003 (ip), vehicle: saline with Tween-80 96 % of control | dose: 100.0 mg/kg/injection, schedule: Q04DX003 (ip), vehicle: saline with Tween-80 97 % of control

CCC(CC)OCCN1CCN(CCCN2c3ccccc3Sc3ccc(C(F)(F)F)cc32)CC1
inactive: dose: 0.75 mg/kg/injection, schedule: Q01DX009 (ip), vehicle: saline with Tween-80 110 % of control | dose: 1.5 mg/kg/injection, schedule: Q01DX009 (ip), vehicle: saline with Tween-80 94 % of control | dose: 2.5 mg/kg/injection, schedule: Q04DX003 (ip), vehicle: saline 110 % of control and 93 % of control | dose: 3.0 mg/kg/injection, schedule: Q01DX009 (ip), vehicle: saline with Tween-80 99 % of control | dose: 5.0 mg/kg/injection, schedule: Q04DX003 (ip), vehicle: saline 101 % of control and 97 % of control | dose: 6.0 mg/kg/injection, schedule: Q01DX009 (ip), vehicle: saline with Tween-80 100 % of control | dose: 10.0 mg/kg/injection, schedule: Q04DX003 (ip), vehicle: saline with Tween-80 99 % of control and 122 % of control | dose: 10.0 mg/kg/injection, schedule: Q04DX003 (ip), vehicle: saline 109 % of control and 96 % of control | dose: 12.0 mg/kg/injection, schedule: Q01DX009 (ip), vehicle: saline with Tween-80 110 % of control | dose: 20.0 mg/kg/injection, schedule: Q04DX003 (ip), vehicle: saline with Tween-80 109 % of control and 119 % of control | dose: 20.0 mg/kg/injection, schedule: Q04DX003 (ip), vehicle: saline 113 % of control and 98 % of control

CCOC(=O)C(=O)Nc1[nH]c(C)c(C)c1C#N
inactive: dose: 50.0 mg/kg/injection, schedule: Q01DX009 (ip), vehicle: saline + alcohol 91 % of control | dose: 100.0 mg/kg/injection, schedule: Q01DX009 (ip), vehicle: saline + alcohol 96 % of control | dose: 200.0 mg/kg/injection, schedule: Q01DX009 (ip), vehicle: saline + alcohol 89 % of control

CCN1CC2c3cc(OC)c(OC)cc3CC(c3ccccc3)C2C1 (stereo not given)
inactive: dose: 6.25 mg/kg/injection, schedule: Q01DX009 (ip), vehicle: saline with Tween-80 120 % of control | dose: 12.5 mg/kg/injection, schedule: Q01DX009 (ip), vehicle: saline with Tween-80 120 % of control | dose: 25.0 mg/kg/injection, schedule: Q01DX009 (ip), vehicle: saline with Tween-80 100 % of control

CC(=O)Nc1cccc(OCc2cccc(N3C(N)=NC(N)=NC3(C)C)c2)c1
inactive: dose: 1.56 mg/kg/injection, schedule: Q01DX009 (ip), vehicle: distilled water + Tween-80 99 % of control | dose: 3.12 mg/kg/injection, schedule: Q01DX009 (ip), vehicle: distilled water + Tween-80 99 % of control | dose: 6.25 mg/kg/injection, schedule: Q01DX009 (ip), vehicle: distilled water + Tween-80 105 % of control | dose: 6.25 mg/kg/injection, schedule: Q01DX009 (ip), vehicle: saline 105 % of control | dose: 12.5 mg/kg/injection, schedule: Q01DX009 (ip), vehicle: distilled water + Tween-80 105 % of control | dose: 12.5 mg/kg/injection, schedule: Q01DX009 (ip), vehicle: saline 101 % of control | dose: 25.0 mg/kg/injection, schedule: Q01DX009 (ip), vehicle: saline 117 % of control
